Drawing on patent publication US8039453B2, “Vinca derivatives” (priority 2006, dated 2011), this text covers GI50 for three molecules.

In this test the test system is HeLa S-3 human cervical carcinoma cell line. Nature of the test: HeLa GI50 determination (SRB growth inhibition). The test is classed as cell-based. The following applies: HeLa S3, 48 h, read-out: HeLa Cells GI50. The protocol: A. HeLa GI50 Determinations
Growth inhibition (GI50) values were measured on the human cervical carcinoma cell line, HeLa S-3, which were selected for growth on plastic. The HeLa cell assay was based on the description of Skehan et al., J. Natl. Cancer Inst., 82:1107-12 (1990), which is hereby incorporated by reference in its entirety. HeLa cells were plated at 2×10^4 cells/well in 96 well plates. One day later, a control plate was fixed by the addition of TCA to 5%. After five rinses with tap water, the plate was air-dried and stored at 4° C. Test compounds were added to the remaining plates at 10-fold dilutions. Two days later, all plates were fixed as described above. Cells were then stained by the addition of 100 μL per well of 0.4% sulforhodamine B (SRB) in 1% acetic acid for 30 min at 4° C. Wells were then quickly rinsed 5× with 1% acetic acid and allowed to air dry. The SRB was then solubilized by the addition of 100 μL per well of unbuffered 10 mM Tris base. Dye was quantified by measuring absorbance at 490 nm on a Molecular Devices microplate reader. Growth inhibition was calculated according to the following equation: GI=100×(T−T0)/(C−T0), where the optical density (OD) of the test well after 2 days of treatment was T, the OD of the wells in the control plate on day 0 was T0 and C was the OD of untreated wells. Plots of percent growth inhibition versus inhibitor concentration were used to determine the GI50.

Setting [1] is: HeLa S-3 cells, 2 days of treatment, sulforhodamine B staining.

Structures are written as SMILES. Where two headings read alike, the source gives them in different places.

For orientation: GI50 means the concentration that inhibits growth by half.

Take `CCc1ccc2[nH]c3c(c2c1)CCN1CC(C(C)(F)F)C[C@@H](C1)C[C@]3(C(=O)OC)c1cc2c(cc1OC)N(C)[C@H]1[C@@](O)(C(=O)OC)[C@H](OC(C)=O)[C@]3(CC)C=CCN4CC[C@]21[C@@H]43` (stereo partly drawn) [Example 3, 12′-Ethyl-4′-deoxy-20′,20′-diflurovincaleukoblastine]: under setting [1], the GI50 is more than 1000 nM.

With `CC[C@]12C=CCN3CC[C@@]4(c5cc([C@@]6(C(=O)OC)C[C@H]7CC(C(C)(F)F)CN(CCc8c6[nH]c6ccc(SC)cc86)C7)c(OC)cc5N(C)[C@H]4[C@@](O)(C(=O)OC)[C@@H]1OC(C)=O)[C@@H]32` (stereo partly drawn) [Example 12, 12′-(Methylsulfanyl)-4′-deoxy-20′,20′-diflurovincaleukoblastine], under setting [1], the GI50 was found to be 93 nM.

Regarding `CC[C@]12C=CCN3CC[C@@]4(c5cc([C@@]6(C(=O)OC)C[C@H]7CC(C(C)(F)F)CN(CCc8c6[nH]c6ccc(-c9ccccc9)cc86)C7)c(OC)cc5N(C)[C@H]4[C@@](O)(C(=O)OC)[C@@H]1OC(C)=O)[C@@H]32` (stereo partly drawn) [Example 6, 12′-Phenyl-4′-deoxy-20′,20′-diflurovincaleukoblastine], the GI50 turned out to be 23100 nM.
